Bridge positions count the residues as written; N and C are the ends. Ends that are not written are not given here. Peptide text beside a SMILES is read from it.
How the values were obtained:
P-Smad2/3 = P-Smad2/3 content in lung tissue, BLM mouse fibrosis model; format: in vivo; conditions: single intratracheal dose 3 mg/kg on Day 7, lung 24 h later, BLM model group = 100.00
From the text: This example aimed to evaluate the inhibitory effect of polypeptides on the TGF-β downstream signaling pathway during fibrosis progression. TGF-β intracellular signaling relies on the phosphorylation events of Smad family proteins. The increase in Smad2/3 phosphorylation levels is an important indicator that signal transduction has occurred in the TGF-β signaling pathway.
In this example, 6- to 8-week-old male C57/6J mice weighing 18-20 g were used as subjects for the study. The experimental animals were randomized into groups, eight animals in each group. In this example, intratracheal administration was performed using an aerosol intratracheal metered dosing applicator during both the modeling and drug delivery processes, as described in Example 4. On the day of modeling (Day 1), the experimental animals were randomly assigned to groups and administered a 0.7 USP/kg dose of bleomycin solution (HanHui Pharmaceutical, Batch No. 20080511) via the tracheal route to induce the model. On Day 7, each peptide-treated group received a single intratracheal dose of peptide drug at a dosage of 3 mg/kg, while the BLM model group was given an equal volume of solvent (saline) as a control. Twenty-four hours after drug administration, the animals were dissected, and the lung tissues were collected and frozen in liquid nitrogen for future use. Total protein from the lung tissue was extracted after grinding the tissue in liquid nitrogen, and the total P-Smad2/3 content in the tissue was measured by using P-Smad2/3 ELISA kit (CST, Catalog No. 12001C). The ratio of the P-Smad2/3 content between the peptide-treated group and the model group was calculated to evaluate the effect of the peptide on TGFβ signaling.

[1] = target: T1, binding of TSP-1 protein to CD36, a TSP-1 receptor protein (Homo sapiens, UniProt P07996); experiment: ELISA: blocking of CD36 binding to TSP-1 protein; conditions: 100 μM polypeptide, 0.25 μg/mL Fc-tagged CD36, blocking of CD36 binding to TSP-1; for inhibition at 100 µM: 3 h, read-out: Blocking rate (Mean, %)
T1 construct: purchased novoprotein (TSP-1); R&D Systems (Fc-tagged CD36) CU45 (TSP-1); 1955-CD-050 (CD36-Fc)
Description: ELISA assay was performed to detect the ability of the polypeptides to block the binding of TSP-1 protein to CD36, a TSP-1 receptor protein. TSP-1 protein (novoprotein, Catalog No. CU45) was diluted to 2 μg/mL using 100 mM carbonate buffer and added to sample wells (100 μL/well) of a 96-well ELISA plate (Thermo, Catalog No. 437111), and incubated overnight at 4° C.; after washing the plate twice using 1×PBST wash solution, 200 μL of 1.5% BSA (Sigma, Catalog No. B2064) was added to each well, and incubated at 37° C. for 2 h; after washing the plate 3 times using 1×PBST wash solution, the analytes were added (100 μL/well, 3 replicate wells; for the control group, 0.25 μg/mL of Fc-tagged CD36 protein (R&D Systems, Catalog No. 1955-CD-050); and for the polypeptide-treated groups, a mixture containing Fc-tagged CD36 protein and polypeptide at final concentrations of 0.25 μg/mL and 100 μM, respectively), and incubated at 37° C. for 3 h. After washing the plate 5 times using 1×PBST wash solution, a 1:500 dilution solution of FITC-labeled anti-Fc-tagged antibody (Beyotime, Catalog No. A0556) was added, and incubated for 1 h at 37° C.; after washing the plate 5 times using 1×PBST wash solution, a multifunctional ELISA instrument (TECAN, model: Infinite 200 Pro) was used to detect the intensity of FITC fluorescence signal in each sample well. The ability of the polypeptides to block CD36 binding to TSP-1 protein (Table 2-1) was assessed by calculating the ratio of the fluorescence signal from the polypeptide-treated groups to that of the control group, allowing for the determination of the blocking rate of the polypeptides in inhibiting CD36 binding to TSP-1 protein, i.e., (fluorescence signal of the control group-fluorescence signal of the polypeptide-treated group)/fluorescence signal of the control group×100%. Based on the blocking rate results obtained at the single concentration and on the polypeptide molecule properties, the preferred polypeptide molecules were assayed for concentration dependence (at 0 μM, 0.5 μM, 1 μM, 5 μM, 10 μM, and 100 μM), and IC50 values of the polypeptides for blocking CD36 binding to TSP-1 protein were determined to further assess the abilities of the preferred polypeptide molecules to block the binding of CD36 to TSP-1 (Table 2-2).

active TGF-β = experiment: Active TGF-β level in lung tissue, bleomycin (BLM) mouse lung fibrosis model; format: in vivo; conditions: single intratracheal dose 3 mg/kg on Day 7, lung 24 h later, BLM model group = 100.00
From the text: This Example was to evaluate the inhibitory effect of polypeptides on active TGF-β level during the progression of fibrotic disease. In this Example, a mouse lung fibrosis model induced by bleomycin (BLM) was used. The BLM animal model offers advantages, including a close mimicry of the pathological features of the primary disease, ease of use, and good reproducibility. It is the most representative model for studying the mechanisms of fibrosis and is recommended for evaluating drug efficacy.
In this Example, 6 to 8-week-old male C57/6J mice weighing 18-20 g were used as subjects for the study. The experimental animals were randomized into groups, 8 animals in each group, and the expressions of pro-fibrotic factors were detected at the endpoint of the experiment (Day 8) in this model. In this example, an aerosol intratracheal metered dosing applicator (Yuyan, model YAN30012) was utilized for intratracheal administration during the modeling and drug delivery processes. The dosing was performed as follows (An Official American Thoracic Society Workshop Report: Use of Animal Models for the Preclinical Assessment of Potential Therapies for Pulmonary Fibrosis, Am J Respir Cell Mol Biol Vol 56, Iss 5, pp 667-679, May 2017): The experimental animals were anesthetized with aerosolized isoflurane (RWD, lot no. 22041701) using a small animal anesthesia machine (RWD, model R500IE). Animals in the appropriate anesthetic state were positioned supine with heads facing up and bodies tilted on an operating platform (tilted at approximately) 60°, secured by their incisors. The practitioner gently lifted the tongue with tissue forceps in the right hand, pushing it outward and upward to open the animal's lower jaw. Holding the laryngoscope (Yuyan, model SR310-RW) in the left hand, the practitioner slid its anterior leaf-shaped blade along the midline of the tongue into the oral cavity until reaching the glottis, gently pressing the body and root of the tongue upward. The needle of the drug applicator was then inserted through the mouth into the glottis alongside the laryngoscope, and 50 μL of liquid was quickly injected. On the day of modeling (Day 1), the experimental animals were randomly assigned to groups and administered a 0.7 USP/kg dose of bleomycin solution (HanHui Pharmaceutical, Batch No. 20080511) via the tracheal route to induce the model. On Day 7, each peptide-treated group received a single intratracheal dose of 50 μL peptide drug (at a dosage of 3 mg/kg), while the model group was given an equal volume of solvent (saline, Kelong, Batch No. L221062501) as a control. Twenty-four hours after drug administration, the animals were dissected to collect lung tissue, which was ground in liquid nitrogen to extract total protein from the lung tissue. The active TGF-β content in the lung tissue of mice from each group was measured using the TGF-β ELISA kit (BOSTER, catalog number EK0515). The ratio of active TGF-β content between the peptide-treated group and the model group was calculated to evaluate the effect of the peptide on active TGF-β level.

[2] = tested on: TSP-1-dependent TGF-β activation; experiment: TSP-1-dependent TGF-β activation in PMA-differentiated THP-1 cells with 293-TGFβ Res reporter cells; format: cell-based; conditions: 100 μM polypeptide, 24 h; ratio to negative control group (1.00)
Description: In this Example, the inhibitory effects of the polypeptides on TSP-1-dependent TGF-β activation were detected using a model based on a high TSP-1 expressing cell. In the assay, THP-1 cells (American Typical Culture Collection, ATCC, TIB-20) were induced by phorbol ester (Phorbol 12-myristate 13-acetate, PMA) (Sigma, Catalog No. P1585) and differentiated into macrophage-like cells with distinct macrophage expression profiles.
The experiment was performed as follows: THP-1 cells were inoculated in a 96-well plate, and treated with 300 nM PMA for differentiation and adherence to form macrophage-like cells. 100 μM polypeptide was added (For the negative control group, an equal volume of PBS (the solvent for the polypeptide) was added, while the positive control group received an equal concentration of the polypeptide shown in SEQ ID NO: 50.) The cells were treated for 24 hours, and then a 293 reporter cell strain, 293-TGFβ Res cell strain (novoprotein, Catalog No. XCC03-1), was added for detecting TGF-β activity, and co-cultivated for 24 hours. Bio-Lite Luciferase Assay lysate comprising fluorescent substrate (Vazyme, Catalog No. DD1201-01) was added, and the fluorescent intensity was detected using a multifunctional microplate reader (TECAN, model Infinite 200 Pro). The inhibitory effect of the polypeptide on TGF-β activation was assessed by calculating the ratio of the fluorescence signal from the polypeptide-treated groups to that of the negative control group.

T1 sequence (P07996 19-1170): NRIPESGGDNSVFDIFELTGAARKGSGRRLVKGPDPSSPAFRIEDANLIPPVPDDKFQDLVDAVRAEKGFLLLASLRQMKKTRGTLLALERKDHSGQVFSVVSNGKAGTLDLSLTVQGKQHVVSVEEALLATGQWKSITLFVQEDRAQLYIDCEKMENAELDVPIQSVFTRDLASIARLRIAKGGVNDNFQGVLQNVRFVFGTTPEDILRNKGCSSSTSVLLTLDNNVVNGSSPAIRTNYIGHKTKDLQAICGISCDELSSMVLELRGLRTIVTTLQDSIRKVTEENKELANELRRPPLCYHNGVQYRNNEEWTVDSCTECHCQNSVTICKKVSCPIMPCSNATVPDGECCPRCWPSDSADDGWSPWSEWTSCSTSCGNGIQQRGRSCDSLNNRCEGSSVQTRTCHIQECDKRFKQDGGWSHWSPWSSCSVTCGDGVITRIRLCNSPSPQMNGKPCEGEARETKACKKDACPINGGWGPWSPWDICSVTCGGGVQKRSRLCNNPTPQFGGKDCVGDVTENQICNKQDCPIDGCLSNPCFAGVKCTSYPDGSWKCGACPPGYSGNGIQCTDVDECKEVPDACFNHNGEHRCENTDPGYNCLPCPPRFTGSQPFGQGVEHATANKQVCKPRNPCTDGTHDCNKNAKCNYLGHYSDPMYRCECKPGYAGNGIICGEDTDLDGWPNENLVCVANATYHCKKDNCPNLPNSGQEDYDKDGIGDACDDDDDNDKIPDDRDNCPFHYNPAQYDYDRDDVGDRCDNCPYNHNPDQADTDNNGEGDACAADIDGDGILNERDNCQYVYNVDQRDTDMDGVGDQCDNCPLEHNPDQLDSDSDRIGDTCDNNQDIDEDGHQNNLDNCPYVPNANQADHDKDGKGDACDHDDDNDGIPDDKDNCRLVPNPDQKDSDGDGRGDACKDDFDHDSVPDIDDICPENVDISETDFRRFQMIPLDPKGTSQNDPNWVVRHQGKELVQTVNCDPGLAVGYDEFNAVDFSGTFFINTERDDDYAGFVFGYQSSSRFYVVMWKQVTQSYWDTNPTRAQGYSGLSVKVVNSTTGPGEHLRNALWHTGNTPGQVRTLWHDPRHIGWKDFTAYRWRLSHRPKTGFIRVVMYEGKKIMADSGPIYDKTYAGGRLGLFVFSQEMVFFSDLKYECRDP

Molecule | P-Smad2/3 content in lung tissue, ratio to model group, Mean(%) (P-Smad2/3) | Blocking rate (Mean, %) [1] [%] | active TGF-β content in lung tissue, ratio to model group, Mean(%) (active TGF-β) | P-Smad2/3 content in lung tissue, ratio to model group, Mean(%) (P-Smad2/3; 3 mg/kg) | Mean (relative fluorescence intensity) [2] | active TGF-β content in lung tissue, ratio to model group, Mean(%) (active TGF-β; 3 mg/kg) | inhibition at 100 µM [1] [%]
Ac-Thr-Gln-Asp-Ala-Glu-Asp-Asn-Thr-Val-Ser-Phe-NH2 (Ac-TQDAEDNTVSF-NH2) [SEQ ID NO: 27] | 88.69 | 25.53 | 89.89 |  |  |  | 
Ac-Thr-Asn-Asp-Ala-Glu-Asp-Asn-NH2 (Ac-TNDAEDN-NH2) [SEQ ID NO: 08] | 83.02 | 16.70 | 80.31 |  |  |  | 
C[C@@H]1NC(=O)[C@H](CC(=O)O)NC(=O)[C@H](CCC(N)=O)NC(=O)[C@H]([C@@H](C)O)NC(=O)[C@H](CC(N)=O)NC(=O)[C@H](CC(=O)O)NC(=O)[C@H](CCC(=O)O)NC1=O [SEQ ID NO: 45, cyclo[Gln-Asp-Ala-Glu-Asp-Asn-Thr]] (cyclo(AEDNTQD)) |  |  |  | 82.42 | 0.52 | 81.10 | 
Thr-Gln-cyclo[Asp-Ala-Glu-Asp-Asn-Lys] (TQDAEDNK; lactam 3-8) [SEQ ID NO: 42] | 85.16 | 25.68 | 80.59 |  |  |  | 
Ac-TQDPAEDN-NH2 [SEQ ID NO: 48, Ac-Thr-Gln-Asp-Pro-Ala-Glu-Asp-Asn-NH2] | 80.57 |  | 82.97 |  |  |  | 29.7
cyclo[Thr-Gln-Asp-Pro-Glu-Asp-Asn] (TQDPEDN; cyclic peptide; MISC_FEATURE - head-to-tail backbone cyclization) [SEQ ID NO: 41] | 81.44 | 28.65 | 74.12 |  |  |  | 
Ac-Thr-Gln-Asp-Ala-Glu-Asp-Asn-Thr-Val-NH2 (Ac-TQDAEDNTV-NH2) [SEQ ID NO: 17] | 74.12 | 29.16 | 71.36 |  |  |  | 
Ac-Thr-Glu-Asp-Ala-Glu-Asp-Asn-NH2 (Ac-TEDAEDN-NH2) [SEQ ID NO: 09] | 89.41 | 15.87 | 72.26 |  |  |  | 
Ac-Ser-Gln-Asp-Ala-Glu-Asp-Asn-NH2 (Ac-SQDAEDN-NH2) [SEQ ID NO: 07] | 80.71 | 16.42 | 71.66 |  |  |  | 
Ac-Thr-Gln-Asp-Ala-Glu-Asp-Asn-Thr-Ala-Ser-Phe-NH2 (Ac-TQDAEDNTASF-NH2) [SEQ ID NO: 31] | 90.02 | 18.44 | 83.22 |  |  |  | 
Ac-Thr-Gln-Asp-Ala-Glu-Asp-Leu-NH2 (Ac-TQDAEDL-NH2) [SEQ ID NO: 12] | 90.48 | 18.39 | 81.77 |  |  |  | 
Ac-Thr-Gln-Asp-Pro-Ala-Glu-Asp-NH2 (Ac-TQDPAED-NH2) [SEQ ID NO: 47] | 93.25 | 19.10 | 83.78 |  |  |  | 
Ac-TQDAEDNTQD-NH2 [SEQ ID NO: 49, Ac-Thr-Gln-Asp-Ala-Glu-Asp-Asn-Thr-Gln-Asp-NH2] | 91.98 |  | 82.64 |  |  |  | 30.2

From patent publication US20250388623A1, “PEPTIDE INHIBITOR AND USE THEREOF” (CHENGDU BRILLIANT INSPIRATION BIOTHERAPEUTICS CO., LTD, priority 2022, published 2025)
